Assay results published in patent publication US9944608B2, “Herbicidal pyridazinone derivatives” (Syngenta Participations AG, priority 2014, dated 2018).

Legend:
Assay in all cases: B1 Post-emergence efficacy, glasshouse pot test
Assay type in all cases: in vivo
Conditions in all cases: post-emergence application, 1000 g/ha, evaluated after 13 days
Setaria faberi (SETFA) = system: Setaria faberi (SETFA)
Description: (§1) B1 Post-Emergence Efficacy Seeds of a variety of test species are sown in standard soil in pots:—Solanum nigrum (SOLNI), Amaranthus retoflexus (AMARE), Setaria faberi (SETFA), Alopecurus myosuroides (ALOMY), Echinochloa crus-galli (ECHCG), Ipomoea hederacea (IPOHE), Lolium perenne (LOLPE). After 8 days cultivation (post-emergence) under controlled conditions in a glasshouse (at 24/16° C., day/night; 14 hours light; 65% humidity), the plants are sprayed with an aqueous spray solution derived from the formulation of the technical active ingredient in acetone/water (50:50) solution containing 0.5% Tween 20 (polyoxyethelyene sorbitan monolaurate, CAS RN 9005-64-5). Compounds are applied at 1000 g/ha. The test plants are then grown in a glasshouse under controlled conditions in a glasshouse (at 24/16° C., day/night; 14 hours light; 65% humidity) and watered twice daily. After 13 days, the test is evaluated for the percentage damage caused to the plant. The biological activities are assessed on a five point scale (5=80-100%; 4=60-79%; 3=40-59%; 2=20-39%; 1=0-19%). A blank value in the table is indicative that the compound was not tested on that species.

Lolium perenne (LOLPE) = system: Lolium perenne (LOLPE)
Description: as §1

[1] = system: Amaranthus retoflexus (AMARE)
Description: as §1

Solanum nigrum (SOLNI) = system: Solanum nigrum (SOLNI)
Description: as §1

[2] = system: Echinochloa crus-galli (ECHCG)
Description: as §1

[3] = system: Ipomoea hederacea (IPOHE)
Description: as §1

[4] = system: Alopecurus myosuroides (ALOMY)
Description: as §1

Row | Structure (SMILES) | SETFA: percentage damage caused to the plant (five point scale) (Setaria faberi (SETFA)) | LOLPE: percentage damage caused to the plant (five point scale) (Lolium perenne (LOLPE)) | AMARE: percentage damage caused to the plant (five point scale) [1] | SOLNI: percentage damage caused to the plant (five point scale) (Solanum nigrum (SOLNI)) | ECHCG: percentage damage caused to the plant (five point scale) [2] | IPOHE: percentage damage caused to the plant (five point scale) [3] | ALOMY: percentage damage caused to the plant (five point scale) [4]
1 | Cn1nc(N)c(O)c(-c2c(Cl)ccc(Cl)c2OCc2ccccc2)c1=O [Compound 1.081] | 4 (4=60-79%) | 2 (2=20-39%) | 3 (3=40-59%) | 5 (5=80-100%) | 2 (2=20-39%) | 4 (4=60-79%) | –
2 | Cc1nn(C2CC2)c(=O)c(-c2c(Cl)ccc(Cl)c2OCc2ccccc2)c1O [Compound 1.041] | 5 (5=80-100%) | 4 (4=60-79%) | 5 (5=80-100%) | 5 (5=80-100%) | 5 (5=80-100%) | 5 (5=80-100%) | –
3 | Cn1nc(C(F)(F)F)c(O)c(-c2c(C(F)(F)F)ccc(Cl)c2OCc2ccccc2)c1=O [Compound 1.071] | 5 (5=80-100%) | 3 (3=40-59%) | 3 (3=40-59%) | 5 (5=80-100%) | 4 (4=60-79%) | 5 (5=80-100%) | –
4 | CC1=NN(C)C(=O)C(c2c(Cl)ccc(Cl)c2OCc2ccccc2)C1=O (stereo not drawn) [Compound 1.001, 4-(2-benzyloxy-3,6-dichloro-phenyl)-2,6-dimethyl-pyridazine-3,5-dione] | 5 (5=80-100%) | – | 5 (5=80-100%) | 5 (5=80-100%) | 5 (5=80-100%) | 5 (5=80-100%) | 4 (4=60-79%)
5 | Cc1nn(C)c(=O)c(-c2c(C(F)(F)F)ccc(Cl)c2OCc2ccccc2)c1O [Compound 1.073] | 5 (5=80-100%) | 3 (3=40-59%) | 3 (3=40-59%) | 5 (5=80-100%) | 5 (5=80-100%) | 5 (5=80-100%) | –
6 | CSc1nn(C)c(=O)c(-c2c(Cl)ccc(Cl)c2OCc2ccccc2)c1O [Compound 1.086] | 4 (4=60-79%) | 4 (4=60-79%) | 3 (3=40-59%) | 5 (5=80-100%) | 2 (2=20-39%) | 5 (5=80-100%) | –
7 | C#CCn1nc(C)c(O)c(-c2c(F)ccc(Cl)c2OCc2ccccc2)c1=O [Compound 1.077] | 5 (5=80-100%) | 5 (5=80-100%) | 5 (5=80-100%) | 5 (5=80-100%) | 5 (5=80-100%) | 5 (5=80-100%) | –
8 | CCc1nn(C)c(=O)c(-c2c(F)ccc(Cl)c2OCc2ccccc2)c1O [Compound 1.010] | 3 (3=40-59%) | 4 (4=60-79%) | 5 (5=80-100%) | 5 (5=80-100%) | 4 (4=60-79%) | 5 (5=80-100%) | –
9 | Cn1nc(N)c(O)c(-c2c(F)ccc(Cl)c2OCc2ccccc2)c1=O [Compound 1.078] | 3 (3=40-59%) | 1 (1=0-19%) | 3 (3=40-59%) | 5 (5=80-100%) | 2 (2=20-39%) | 4 (4=60-79%) | –
10 | Cc1nn(C)c(=O)c(-c2c(F)ccc(Cl)c2OCc2ccccc2)c1O [Compound 1.004] | 5 (5=80-100%) | 5 (5=80-100%) | 5 (5=80-100%) | 5 (5=80-100%) | 5 (5=80-100%) | 5 (5=80-100%) | –
11 | Cn1nc(S(C)(=O)=O)c(O)c(-c2c(F)ccc(Cl)c2OCc2ccccc2)c1=O [Compound 1.079] | 1 (1=0-19%) | 1 (1=0-19%) | 1 (1=0-19%) | 5 (5=80-100%) | 1 (1=0-19%) | 5 (5=80-100%) | –
12 | Cn1nc(C(F)(F)F)c(O)c(-c2c(Cl)ccc(Cl)c2OCc2ccccc2)c1=O [Compound 1.075] | 5 (5=80-100%) | 4 (4=60-79%) | 4 (4=60-79%) | 5 (5=80-100%) | 5 (5=80-100%) | 5 (5=80-100%) | –
13 | CN(C)c1nn(C)c(=O)c(-c2c(Cl)ccc(Cl)c2OCc2ccccc2)c1O [Compound 1.087] | 5 (5=80-100%) | 5 (5=80-100%) | 5 (5=80-100%) | 5 (5=80-100%) | 5 (5=80-100%) | 5 (5=80-100%) | –
14 | Cc1nn(C)c(=O)c(-c2c(Cl)cc(Cl)cc2OCc2ccccc2)c1O [Compound 1.006] | 3 (3=40-59%) | 2 (2=20-39%) | 5 (5=80-100%) | 5 (5=80-100%) | 3 (3=40-59%) | 5 (5=80-100%) | –
15 | Cn1nc(C2CC2)c(O)c(-c2c(F)ccc(Cl)c2OCc2ccccc2)c1=O [Compound 1.012] | 5 (5=80-100%) | 5 (5=80-100%) | 5 (5=80-100%) | 5 (5=80-100%) | 5 (5=80-100%) | 5 (5=80-100%) | –
16 | Cc1nn(C)c(=O)c(-c2c(C(F)(F)F)ccc(F)c2OCc2ccccc2)c1O [Compound 1.069] | 5 (5=80-100%) | 3 (3=40-59%) | 3 (3=40-59%) | 5 (5=80-100%) | 5 (5=80-100%) | 5 (5=80-100%) | –
